# Columns and labels:
# Assay type in all cases: in vivo
# [1] = test system: barnyardgrass (Echinochloa crus-galli); experiment: Test A preemergence soil spray, visual injury rating 0-100; details: 10 days
# Outline: (§1)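 Compounds formulated in a non-phytotoxic solvent with surfactant are sprayed onto soil of freshly planted loam-sand pots ahead of emergence, or onto emerged plants 2-10 cm tall. After a 10-day greenhouse period, each species is scored visually for injury against untreated controls.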
# [2] = test system: blackgrass (Alopecurus myosuroides); experiment: as above; details: 10 days
# Outline: as §1
# corn (Zea mays) [3] = experiment: as above; details: 10 days
# Outline: as §1
# [4] = test system: green foxtail (Setaria viridis); experiment: as above; details: 10 days
# Outline: as §1
# kochia (Bassia scoparia) [5] = experiment: as above; details: 10 days
# Outline: as §1
# [6] = test system: oat, wild (wild oat, Avena fatua); experiment: as above; details: 10 days
# Outline: as §1
# [7] = test system: palmer (palmer amaranth, palmer pigweed, Amaranthus palmeri); experiment: as above; details: 10 days
# Outline: as §1
# [8] = test system: ragweed (common ragweed, Ambrosia artemisiifolia); experiment: as above; details: 10 days
# Outline: as §1
# [9] = test system: ryegrass, Italian (italian ryegrass, Lolium multiflorum); experiment: as above; details: 10 days
# Outline: as §1
# soybean (Glycine max) [10] = experiment: as above; details: 10 days
# Outline: as §1
# [11] = test system: wheat (Triticum aestivum); experiment: as above; details: 10 days
# Outline: as §1
# [12] = test system: barnyardgrass (Echinochloa crus-galli); experiment: Test A postemergence application, visual injury rating 0-100
# Outline: as §1
# [13] = test system: blackgrass (Alopecurus myosuroides); experiment: as above
# Outline: as §1
# corn (Zea mays) [14] = experiment: as above
# Outline: as §1
# [15] = test system: galium (catchweed bedstraw, Galium aparine); experiment: as above
# Outline: as §1
# [16] = test system: green foxtail (Setaria viridis); experiment: as above
# Outline: as §1
# [17] = test system: horseweed (Erigeron canadensis); experiment: as above
# Outline: as §1
# kochia (Bassia scoparia) [18] = experiment: as above
# Outline: as §1
# [19] = test system: oat, wild (wild oat, Avena fatua); experiment: as above
# Outline: as §1
# [20] = test system: palmer (palmer amaranth, palmer pigweed, Amaranthus palmeri); experiment: as above
# Outline: as §1
# [21] = test system: ragweed (common ragweed, Ambrosia artemisiifolia); experiment: as above
# Outline: as §1
# [22] = test system: ryegrass, Italian (italian ryegrass, Lolium multiflorum); experiment: as above
# Outline: as §1
# soybean (Glycine max) [23] = experiment: as above
# Outline: as §1
# [24] = test system: wheat (Triticum aestivum); experiment: as above
# Outline: as §1
# [25] = test system: barnyardgrass (Echinochloa crusgalli); experiment: Test B flooded paddy test, visual plant response rating 0-100; details: 250 g ai/ha, Flood, applied to paddy water, evaluated after 13 days
# Outline: (§2)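 Visual evaluation after 13 days. Water-applied treatment, 3 cm flood depth held constant, plants at 2-leaf stage at treatment.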
# [26] = test system: ducksalad (Heteranthera limosa); experiment: as above; details: 250 g ai/ha, Flood, applied to paddy water, evaluated after 13 days
# Outline: as §2
# rice (Oryza sativa) = experiment: as above; details: 250 g ai/ha, Flood, applied to paddy water, evaluated after 13 days
# Outline: as §2
# [27] = test system: sedge, umbrella (small-flower umbrella sedge, Cyperus difformis); experiment: as above; details: 250 g ai/ha, Flood, applied to paddy water, evaluated after 13 days
# Outline: as §2
# [28] = 62 g ai/ha, 0 = no effect, 100 = complete control
# [29] = 62 g ai/ha, postemergence, 10 days, 0 = no effect, 100 = complete control
# [30] = Postemergence, 16 g ai/ha, greenhouse 10 days, 0 no effect, 100 complete control
smiles,measurement,setting,value
C=CC1(C(=O)NC2CC(C(=O)OC)C2)CN(c2cc(F)cc(F)c2)C(=O)O1 (stereo not shown) [Compound 175],Barnyardgrass plant response rating,"[1]; 16 g ai/ha, 0 to 100 scale",0
same,Barnyardgrass plant response rating (0-100),[1]; [28],50
same,Blackgrass plant response rating,"[2]; 16 g ai/ha, 0 to 100 scale",40
same,Blackgrass plant response rating (0-100),[2]; [28],60
same,Corn plant response rating,"corn (Zea mays) [3]; 16 g ai/ha, 0 to 100 scale",0
same,Corn plant response rating (0-100),corn (Zea mays) [3]; [28],0
same,"Foxtail, Green plant response rating","[4]; 16 g ai/ha, 0 to 100 scale",0
same,"Foxtail, Green plant response rating (0-100)",[4]; [28],90
same,Kochia plant response rating,"kochia (Bassia scoparia) [5]; 16 g ai/ha, 0 to 100 scale",0
same,Kochia plant response rating (0-100),kochia (Bassia scoparia) [5]; [28],0
same,"Oat, Wild plant response rating","[6]; 16 g ai/ha, 0 to 100 scale",0
same,"Oat, Wild plant response rating (0-100)",[6]; [28],0
same,"Pigweed, Palmer plant response rating","[7]; 16 g ai/ha, 0 to 100 scale",0
same,"Pigweed, Palmer plant response rating (0-100)",[7]; [28],0
same,Ragweed plant response rating,"[8]; 16 g ai/ha, 0 to 100 scale",0
same,Ragweed plant response rating (0-100),[8]; [28],0
same,"Ryegrass, Italian plant response rating","[9]; 16 g ai/ha, 0 to 100 scale",10
same,"Ryegrass, Italian plant response rating (0-100)",[9]; [28],90
same,Soybean plant response rating,"soybean (Glycine max) [10]; 16 g ai/ha, 0 to 100 scale",0
same,Soybean plant response rating (0-100),soybean (Glycine max) [10]; [28],0
same,Wheat plant response rating,"[11]; 16 g ai/ha, 0 to 100 scale",40
same,Wheat plant response rating (0-100),[11]; [28],90
same,Barnyardgrass plant response rating (0-100),[12]; [29],70
same,Barnyardgrass plant response rating (0 to 100 scale),[12]; [30],0
same,Blackgrass plant response rating (0-100),[13]; [29],90
same,Blackgrass plant response rating (0 to 100 scale),[13]; [30],60
same,Corn plant response rating (0-100),corn (Zea mays) [14]; [29],20
same,Corn plant response rating (0 to 100 scale),corn (Zea mays) [14]; [30],0
same,Galium plant response rating (0-100),[15]; [29],90
same,Galium plant response rating (0 to 100 scale),[15]; [30],90
same,"Foxtail, Green plant response rating (0-100)",[16]; [29],90
same,"Foxtail, Green plant response rating (0 to 100 scale)",[16]; [30],30
same,Horseweed plant response rating (0-100),[17]; [29],0
same,Horseweed plant response rating (0 to 100 scale),[17]; [30],0
same,Kochia plant response rating (0-100),kochia (Bassia scoparia) [18]; [29],0
same,Kochia plant response rating (0 to 100 scale),kochia (Bassia scoparia) [18]; [30],0
same,"Oat, Wild plant response rating (0-100)",[19]; [29],80
same,"Oat, Wild plant response rating (0 to 100 scale)",[19]; [30],60
same,"Pigweed, Palmer plant response rating (0-100)",[20]; [29],10
same,"Pigweed, Palmer plant response rating (0 to 100 scale)",[20]; [30],0
same,Ragweed plant response rating (0-100),[21]; [29],0
same,Ragweed plant response rating (0 to 100 scale),[21]; [30],0
same,"Ryegrass, Italian plant response rating (0-100)",[22]; [29],100
same,"Ryegrass, Italian plant response rating (0 to 100 scale)",[22]; [30],70
same,Soybean plant response rating (0-100),soybean (Glycine max) [23]; [29],60
same,Soybean plant response rating (0 to 100 scale),soybean (Glycine max) [23]; [30],0
same,Wheat plant response rating (0-100),[24]; [29],70
same,Wheat plant response rating (0 to 100 scale),[24]; [30],30
same,"Plant response rating, Barnyardgrass (0 to 100 scale, 0 is no effect and 100 is complete control)",[25],0
same,"Plant response rating, Ducksalad (0 to 100 scale, 0 is no effect and 100 is complete control)",[26],0
same,"Plant response rating, Rice (0 to 100 scale, 0 is no effect and 100 is complete control)",rice (Oryza sativa),0
same,"Plant response rating, Sedge, Umbrella (0 to 100 scale, 0 is no effect and 100 is complete control)",[27],0

# From US20260285850A1, “SUBSTITUTED OXAZOLIDINONES AND IMIDAZOLINONES AS HERBICIDES” (FMC CORPORATION, priority 2023, published 2026)
